Assay results published in patent US20030078304A1, “Method of inhibiting the expression of inflammatory cytokines and chemokines” (priority 2000, published 2003).

Test system: NF-κB
Assay: NF-κB-dependent luciferase reporter gene assay in UV-C exposed HeLa cells
Format: cell-based, human
Method: HeLa cells were transfected with a NF-κB-dependent reporter gene and exposed to UV-C 24 hours after transfection. Pretreatment with Astaxanthin was done 3 hours prior to irradiation, where indicated. Cells were harvested and luciferase activity was measured 14-18 hours following exposure. The ratio between Firefly and Renilla luciferase activity is represented as fold activation over the activity in unstimulated control cells. The standard error is based on two identical experiments.
The human […] cell line Hela Tet/off was cultured in MEM alpha medium supplemented with 10% fetal calf serum, penicillin and streptomycin (Gibco Grand Island, N.Y.). The day before transfection, cells were plated on 6 cm dishes in a medium containing 2.5% fetal calf serum. On the day of transfection, the cell culture medium was changed to fresh medium (2.5% fetal calf serum).
A stock solution of Astaxanthin was prepared by dissolving synthetic Astaxanthin (Sigma) in 99.6% ethanol. The concentration of Astaxanthin was measured by spectrophotometry, and the absorbance maximum at 474-479 run was used to calculate the concentration, according to the formula: Absmax/210.
The 6XκB-Luc plasmid contains a firefly luciferase reporter gene driven by 6 NF-κB binding sites cloned upstream of a TK promoter (Meyer et al. 1993). […]

Structure (SMILES): CC1=C(/C=C/C(C)=C/C=C/C(C)=C/C=C/C=C(C)/C=C/C=C(C)/C=C/C2=C(C)C(=O)[C@@H](O)CC2(C)C)C(C)(C)C[C@H](O)C1=O [Astaxanthin]
- effect on the activation of NF-κB effected by UV exposure (HeLa cells transfected with NF-κB-dependent reporter gene, UV-C, pretreatment 3 hours prior to irradiation (FIG. 1)): inhibits the activation of NF-κB effected by UV exposure
- repression of UV-C induced activation of NF-κB-dependent reporter gene (HeLa cells, 6xκB-Luc reporter, UV-C 10 J/m^2, Astaxanthin pretreatment 3 hours at the highest concentration, luciferase 14-18 hours after exposure): ~3 fold
